The results in this text go back to patent publication US20260125378A2, “Heterocyclic Compounds” (BeOne Medicines I GmbH, priority 2023, published 2026).

The term IC50 denotes the concentration that gives 50% inhibition. A low value points to greater potency in that assay.

Assay [1] has as its target T1, Full length DGKζ (in-house protein M1-V929) (Homo sapiens, UniProt Q13574).
T1 construct: His (N); TEV site (N); made in house; host or cells: Sf9 insect cells (Bac-to-Bac baculovirus)
As to the kind of experiment: Biochemical DGK IC50 assay (ADP-Glo, lipid micelle substrate), DGKζ. The note with it: 1 hour preincubation, 1 hour reaction, room temperature. The essentials: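 Full-length human DGKζ (M1-V929, His-TEV tagged, Sf9 baculovirus-expressed) with DAG/PS lipid micelle substrate in octyl glucoside, at room temperature in 50 mM HEPES, 10 mM MgCl2, 0.01 mM CaCl2 buffer.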
For orientation: ADP-Glo turns the ADP formed in a reaction into a luminescent signal.

For assay [2], the target named is T2, Full length DGKα (D21-10BG, SignalChem) (Homo sapiens, UniProt P23743).
T2 construct: Full length DGKα (D21-10BG, SignalChem); purchased SignalChem D21-10BG
T2 sequence (P23743 whole entry): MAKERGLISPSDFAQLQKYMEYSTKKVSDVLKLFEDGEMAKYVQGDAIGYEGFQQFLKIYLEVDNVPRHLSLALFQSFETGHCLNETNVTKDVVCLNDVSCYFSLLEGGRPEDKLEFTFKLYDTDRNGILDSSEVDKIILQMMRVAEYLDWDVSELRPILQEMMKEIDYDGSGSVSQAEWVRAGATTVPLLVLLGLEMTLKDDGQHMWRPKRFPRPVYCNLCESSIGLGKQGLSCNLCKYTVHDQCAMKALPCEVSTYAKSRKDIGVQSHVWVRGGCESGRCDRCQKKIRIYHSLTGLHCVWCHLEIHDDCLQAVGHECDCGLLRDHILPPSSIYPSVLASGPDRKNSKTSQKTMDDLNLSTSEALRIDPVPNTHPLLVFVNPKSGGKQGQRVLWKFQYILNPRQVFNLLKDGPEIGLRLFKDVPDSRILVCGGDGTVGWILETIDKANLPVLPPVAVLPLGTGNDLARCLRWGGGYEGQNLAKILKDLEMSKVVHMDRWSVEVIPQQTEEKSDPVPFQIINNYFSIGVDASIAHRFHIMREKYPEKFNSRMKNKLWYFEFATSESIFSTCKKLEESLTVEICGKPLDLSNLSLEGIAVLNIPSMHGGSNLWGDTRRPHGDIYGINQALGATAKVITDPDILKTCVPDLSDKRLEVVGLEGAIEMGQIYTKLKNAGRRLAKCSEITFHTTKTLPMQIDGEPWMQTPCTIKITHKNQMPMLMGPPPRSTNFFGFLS
Briefly: Biochemical DGK IC50 assay (ADP-Glo, lipid micelle substrate), DGKα. The note with it: 1 hour preincubation, 1 hour reaction, room temperature. The method in brief:
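Full-length human DGKα with DAG/PS lipid micelle substrate (in octyl glucoside buffer), reacted 1 h at room temperature in 50 mM HEPES, 10 mM MgCl2, 0.01 mM CaCl2, 0.1 mM Na3VO4, 0.01% BSA, 0.005% Tween-20. ADP formed read by ADP-Glo luminescence; IC50 from inhibition across increasing compound concentrations.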

T1 sequence (Q13574 1-929 isoform Q13574-4): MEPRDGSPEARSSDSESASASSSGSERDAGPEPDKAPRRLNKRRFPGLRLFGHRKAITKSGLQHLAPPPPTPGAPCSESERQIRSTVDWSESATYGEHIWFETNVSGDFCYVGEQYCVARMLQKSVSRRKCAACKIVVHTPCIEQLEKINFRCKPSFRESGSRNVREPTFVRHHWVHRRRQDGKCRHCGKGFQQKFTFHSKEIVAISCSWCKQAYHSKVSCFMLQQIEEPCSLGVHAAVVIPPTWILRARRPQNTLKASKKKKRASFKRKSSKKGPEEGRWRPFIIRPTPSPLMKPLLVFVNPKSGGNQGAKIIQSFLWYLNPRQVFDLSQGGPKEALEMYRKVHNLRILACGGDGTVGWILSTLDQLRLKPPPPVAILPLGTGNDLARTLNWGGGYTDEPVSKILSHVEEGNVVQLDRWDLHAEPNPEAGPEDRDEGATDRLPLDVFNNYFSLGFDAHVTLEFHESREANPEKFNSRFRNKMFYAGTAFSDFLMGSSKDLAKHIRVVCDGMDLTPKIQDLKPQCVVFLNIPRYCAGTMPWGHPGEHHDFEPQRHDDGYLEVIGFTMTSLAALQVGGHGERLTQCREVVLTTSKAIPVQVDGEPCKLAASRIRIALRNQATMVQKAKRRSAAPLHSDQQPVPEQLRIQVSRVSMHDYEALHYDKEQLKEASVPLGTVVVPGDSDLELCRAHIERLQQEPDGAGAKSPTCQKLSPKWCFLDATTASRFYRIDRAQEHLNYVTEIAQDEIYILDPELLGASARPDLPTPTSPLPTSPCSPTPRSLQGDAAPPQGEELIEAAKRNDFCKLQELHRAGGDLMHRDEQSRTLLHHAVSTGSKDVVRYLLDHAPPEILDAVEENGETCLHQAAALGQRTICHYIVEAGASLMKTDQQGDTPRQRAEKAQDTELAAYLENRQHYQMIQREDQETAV

On to `CCn1c(CC#N)nc2c(N3C[C@@H](C)N(C(C)c4ccc5c(c4Cl)OC(C)(C)O5)C[C@@H]3C)nc(=O)n(C)c21` (single isomer, unassigned) [Compound A172a], for which the results for the IC50 in assay [1] and in assay [2] were 170 nM and 132000 nM, respectively.

As to `CCn1c(CC#N)nc2c(N3C[C@@H](C)N(C(C)c4ccc(F)cc4C(F)(F)F)C[C@@H]3C)nc(=O)n(C)c21` (single isomer, unassigned) [Compound A35b], the figures for the IC50 in assay [1] and in assay [2] were 24 nM and over 150000 nM, respectively.

Turning to `COc1cc(F)ccc1C(C)N1C[C@H](C)N(c2c(F)c(=O)n(C)c3c2nc(CC#N)n3C)C[C@H]1C` (stereo partly drawn) [Compound A16, 2-(6-fluoro-7-((2S,5R)-4-(1-(4-fluoro-2-methoxyphenyl)ethyl)-2,5-dimethylpiperazin-1-yl)-3,4-dimethyl-5-oxo-4,5-dihydro-3H-imidazo[4,5-b]pyridin-2-yl)acetonitrile], the IC50 in assay [1] worked out at 24 nM; in assay [2], 58200 nM.

`CC(c1cccnc1C(F)(F)F)N1C[C@H](C)N(c2cc(=O)n(C)c3c2nc(CC#N)n3C)C[C@H]1C` (single isomer, unassigned) [Compound A7a]: the IC50 in assay [1] was 3110 nM; in assay [2] it was over 10000 nM.

For `CCn1c(CC#N)nc2c(N3C[C@@H](C)N(C(C)c4ccc5c(c4F)OC(C)(C)O5)C[C@@H]3C)c(F)c(=O)n(C)c21` (single isomer, unassigned) [Compound A190a], the results for the IC50 in assay [1] and in assay [2] were 3 nM and over 150000 nM, respectively.

On to `CCn1c(CC#N)nc2c(N3C[C@@H](C)N(C(C)c4ccc5c(c4F)OC(C)(C)CO5)C[C@@H]3C)nc(=O)n(C)c21` (stereo partly drawn) [Compound A71, 2-(9-ethyl-6-((2S,5R)-4-(1-(5-fluoro-3,3-dimethyl-2,3-dihydrobenzo[b][1,4]dioxin-6-yl)ethyl)-2,5-dimethylpiperazin-1-yl)-3-methyl-2-oxo-3,9-dihydro-2H-purin-8-yl)acetonitrile], for which the results for the IC50 in assay [1] and in assay [2] were 48 nM and 124000 nM, respectively.

Turning to `CCn1c(CC#N)nc2c(N3C[C@@H](C)N(C(C)c4ccc5c(c4F)OC(C)(C)O5)C[C@@H]3C)c(F)c(=O)n(C)c21` (single isomer, unassigned) [Compound A190b], the IC50 stood at 41 nM in assay [1] and 38200 nM in assay [2].

As to `CCn1c(CC#N)nc2c(N3C[C@@H](C)N(C(C)c4ccc5c(c4)OC(C)(C)C5=O)C[C@@H]3C)nc(=O)n(C)c21` (stereo partly drawn) [Compound A179, 2-(6-((2S,5R)-4-(1-(2,2-dimethyl-3-oxo-2,3-dihydrobenzofuran-6-yl)ethyl)-2,5-dimethylpiperazin-1-yl)-9-ethyl-3-methyl-2-oxo-3,9-dihydro-2H-purin-8-yl)acetonitrile], the IC50 came to 6 nM in assay [1] and 69000 nM in assay [2].

For the compound `CC(c1ccc(C(F)(F)F)cn1)N1C[C@H](C)N(c2nc(=O)n(C)c3c2nc(CC#N)n3C)C[C@H]1C` (single isomer, unassigned) [Compound A148a], the IC50 in assay [1] amounted to 1100 nM; in assay [2], 3630 nM.

For the compound `CC(c1ccc2c(c1)OC(C)(C)CO2)N1C[C@H](C)N(c2nc(=O)n(C)c3c2nc(CC#N)n3C)C[C@H]1C` (single isomer, unassigned) [Compound A59b], the IC50 in assay [1] amounted to 2.3 nM; in assay [2] it was 14200 nM.

With `CC(OC(F)F)c1cc(F)ccc1C(C)N1C[C@H](C)N(c2nc(=O)n(C)c3c2nc(CC#N)n3C)C[C@H]1C` (single isomer, unassigned) [Compound A29a], the IC50 in assay [1] is 437 nM; in assay [2] it was over 150000 nM.

Consider `CC(c1ccc(F)cc1C(F)(F)F)N1C[C@H](C)N(c2nc(=O)n(C)c3c2nc(CC#N)n3C)C[C@H]1C` (single isomer, unassigned) [Compound A33a], for which the half-maximal inhibitory concentration (IC50) in assay [1] is 804 nM; in assay [2], over 10000 nM.

In the case of `CCn1c(CC#N)nc2c(N3C[C@@H](C)N(C(C)c4ccc(C)cc4C(F)(F)F)C[C@@H]3C)nc(=O)n(C)c21` (single isomer, unassigned) [Compound A116a], the results for the IC50 in assay [1] and in assay [2] were 7760 nM and over 150000 nM, respectively.

As for `CC(c1cc(F)c2c(c1)OC(C)(C)CO2)N1C[C@H](C)N(c2nc(=O)n(C)c3c2nc(CC#N)n3C)C[C@H]1C` (single isomer, unassigned) [Compound A68a], the IC50 in assay [1] worked out at 2 nM; in assay [2], 20300 nM.

On to `CCn1c(CC#N)nc2c(N3C[C@@H](C)N(C(C)c4cccc(C5COC5)c4)C[C@@H]3C)nc(=O)n(C)c21` (stereo partly drawn) [Compound A127, 2-(6-((2S,5R)-2,5-dimethyl-4-(1-(3-(oxetan-3-yl)phenyl)ethyl)piperazin-1-yl)-9-ethyl-3-methyl-2-oxo-3,9-dihydro-2H-purin-8-yl)acetonitrile], for which the IC50 in assay [1] was 428 nM; in assay [2], over 150000 nM.

Take `CCn1c(CC#N)nc2c(N3C[C@@H](C)N(C(C)c4ccc5ncc(C(F)(F)F)nc5c4)C[C@@H]3C)nc(=O)n(C)c21` (stereo partly drawn) [Compound A54, 2-(6-((2S,5R)-2,5-dimethyl-4-(1-(3-(trifluoromethyl)quinoxalin-6-yl)ethyl)piperazin-1-yl)-9-ethyl-3-methyl-2-oxo-3,9-dihydro-2H-purin-8-yl)acetonitrile]: the IC50 in assay [1] was 37 nM; in assay [2], over 150000 nM.

On to `CC(c1ccc2c(c1F)OC(C)(C)CO2)N1C[C@H](C)N(c2nc(=O)n(C)c3c2nc(CC#N)n3C)C[C@H]1C` (stereo partly drawn) [Compound A70, 2-(6-((2S,5R)-4-(1-(5-fluoro-3,3-dimethyl-2,3-dihydrobenzo[b][1,4]dioxin-6-yl)ethyl)-2,5-dimethylpiperazin-1-yl)-3,9-dimethyl-2-oxo-3,9-dihydro-2H-purin-8-yl)acetonitrile], for which the concentration for half-maximal inhibition (IC50) in assay [1] was 8 nM; in assay [2] it was 9690 nM.

`Cc1cnc2ccc(C(C)N3C[C@H](C)N(c4nc(=O)n(C)c5c4nc(CC#N)n5C)C[C@H]3C)cc2n1` (stereo partly drawn) [Compound A49, 2-(6-((2S,5R)-2,5-dimethyl-4-(1-(3-methylquinoxalin-6-yl)ethyl)piperazin-1-yl)-3,9-dimethyl-2-oxo-3,9-dihydro-2H-purin-8-yl)acetonitrile]: the IC50 in assay [1] came to 35 nM; in assay [2] it was 123000 nM.

Turning to `CC(c1ccc(F)cc1OC(C)(F)F)N1C[C@H](C)N(c2nc(=O)n(C)c3c2nc(CC#N)n3C)C[C@H]1C` (stereo partly drawn) [Compound A31, 2-(6-((2S,5R)-4-(1-(2-(1,1-difluoroethoxy)-4-fluorophenyl)ethyl)-2,5-dimethylpiperazin-1-yl)-3,9-dimethyl-2-oxo-3,9-dihydro-2H-purin-8-yl)acetonitrile], the IC50 in assay [1] was determined as 4 nM; in assay [2], 110000 nM.

On to `CC(c1ccc2nccnc2c1)N1C[C@H](C)N(c2cc(=O)n(C)c3sc(CC#N)nc23)C[C@H]1C` (single isomer, unassigned) [Compound A194a], for which the figures for the IC50 in assay [1] and in assay [2] were 7 nM and 3950 nM, respectively.

Consider `CCn1c(CC#N)nc2c(N3C[C@@H](C)N(C(C)c4ccc5ccc(C)nc5c4)C[C@@H]3C)nc(=O)n(C)c21` (stereo partly drawn) [Compound A90, 2-(6-((2S,5R)-2,5-dimethyl-4-(1-(2-methylquinolin-7-yl)ethyl)piperazin-1-yl)-9-ethyl-3-methyl-2-oxo-3,9-dihydro-2H-purin-8-yl)acetonitrile], for which the IC50 in assay [1] was 213 nM; in assay [2] it was over 150000 nM.

`CCn1c(CC#N)nc2c(N3C[C@@H](C)N(C(C)c4cc(F)c5c(n4)OC(C)(C)CO5)C[C@@H]3C)nc(=O)n(C)c21` (mixture of isomers) [Compound A163, 2-(9-ethyl-6-((2S,5R)-4-(1-(8-fluoro-3,3-dimethyl-2,3-dihydro-[1,4]dioxino[2,3-b]pyridin-6-yl)ethyl)-2,5-dimethylpiperazin-1-yl)-3-methyl-2-oxo-3,9-dihydro-2H-purin-8-yl)acetonitrile]: the IC50 is 48 nM in assay [1] and over 150000 nM in assay [2].

On to `CCn1c(CC#N)nc2c(N3C[C@@H](C)N(C(C)c4cc(F)c5c(c4)OC(C)(C)O5)C[C@@H]3C)nc(=O)n(C)c21` (single isomer, unassigned) [Compound A173b], for which the IC50 in assay [1] was found to be 412 nM; in assay [2], 83300 nM.

On to `COC[C@H]1CN(C(C)c2ccc3ncc(C)nc3c2)[C@H](C)CN1c1nc(=O)n(C)c2c1nc(CC#N)n2C` (single isomer, unassigned) [Compound A13b], for which the values for the IC50 in assay [1] and in assay [2] were 54 nM and over 150000 nM, respectively.

On to `[2H]C([2H])([2H])n1c(CC#N)nc2c(N3C[C@@H](C)N(C(C)c4ccc(F)cc4C(F)(F)F)C[C@@H]3C)nc(=O)n(C([2H])([2H])[2H])c21` (stereo partly drawn) [Compound A36, 2-(6-((2S,5R)-4-(1-(4-fluoro-2-(trifluoromethyl)phenyl)ethyl)-2,5-dimethylpiperazin-1-yl)-3,9-bis(methyl-d3)-2-oxo-3,9-dihydro-2H-purin-8-yl)acetonitrile], for which the IC50 is 17 nM in assay [1] and 104000 nM in assay [2].

With `CCn1c(CC#N)nc2c(N3C[C@@H](C)N(C(C)c4ccn(C)c(=O)c4)C[C@@H]3C)nc(=O)n(C)c21` (stereo partly drawn) [Compound A107, 2-(6-((2S,5R)-2,5-dimethyl-4-(1-(1-methyl-2-oxo-1,2-dihydropyridin-4-yl)ethyl)piperazin-1-yl)-9-ethyl-3-methyl-2-oxo-3,9-dihydro-2H-purin-8-yl)acetonitrile], the IC50 in assay [1] was over 10000 nM; in assay [2] it was over 150000 nM.

As to `CCn1c(CC#N)nc2c(N3C[C@@H](C)N(C(C)c4cccc(C5(C)CC5)c4)C[C@@H]3C)nc(=O)n(C)c21` (stereo partly drawn) [Compound A126, 2-(6-((2S,5R)-2,5-dimethyl-4-(1-(3-(1-methylcyclopropyl)phenyl)ethyl)piperazin-1-yl)-9-ethyl-3-methyl-2-oxo-3,9-dihydro-2H-purin-8-yl)acetonitrile], the figures for the IC50 in assay [1] and in assay [2] were 24 nM and 124000 nM, respectively.
